Assay results: PMC8049054, “Systematic Assessment of Fragment Identification for Multitarget Drug Design” (Chemmedchem, 2021)

Biological target: T1, soluble epoxide hydrolase (sEH) (Homo sapiens, UniProt P34913)
T1 construct: made in house; host or cells: E. coli BL21 (DE3)
T1 sequence (P34913 1-555): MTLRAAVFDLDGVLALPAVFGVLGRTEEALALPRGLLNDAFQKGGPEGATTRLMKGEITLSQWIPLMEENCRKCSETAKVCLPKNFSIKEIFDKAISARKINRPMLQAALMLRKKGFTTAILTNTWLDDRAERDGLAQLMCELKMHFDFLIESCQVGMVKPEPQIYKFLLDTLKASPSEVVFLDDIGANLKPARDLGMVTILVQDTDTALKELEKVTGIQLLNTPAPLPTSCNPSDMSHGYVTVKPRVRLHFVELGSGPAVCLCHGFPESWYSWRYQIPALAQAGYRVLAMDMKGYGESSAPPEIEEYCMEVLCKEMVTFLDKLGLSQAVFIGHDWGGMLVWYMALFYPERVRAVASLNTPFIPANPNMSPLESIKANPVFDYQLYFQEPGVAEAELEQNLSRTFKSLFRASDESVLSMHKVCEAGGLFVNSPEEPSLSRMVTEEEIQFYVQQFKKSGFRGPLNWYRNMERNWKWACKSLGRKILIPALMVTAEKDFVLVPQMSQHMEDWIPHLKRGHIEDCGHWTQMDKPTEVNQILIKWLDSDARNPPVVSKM
Experiment: sEH-H activity assay (fluorogenic substrate PHOME)
Type: biochemical
Settings: for sEH LE: ligand efficiency calculated from IC50; for IC50: mean±standard deviation of three independent experiments
Protocol: For hit validation, we employed secondary assays with orthogonal readouts to confirm fragment activities. Biochemical activity assays were chosen for the enzymes sEH, LTA4H, and 5‐LOX. […] RXRα and FXR modulation was assessed in cell‐based hybrid reporter gene assays. All ten compounds were tested at a single concentration of 500 μM in the sEH and LTA4H activity assays and with a concentration of 100 μM on 5‐LOX, RXRα, and FXR. Fragments showing an inhibition greater than 50 % (sEH‐H and LTA4H) or greater than 70 % (5‐LOX) as well as the hits determined in the DSF experiments were further characterized in full concentration‐response curves between 0.1 and 1000 μM. […] As alternative cell‐free assay we employed isothermal titration calorimetry (ITC) to determine binding affinity of the fragments towards the LBDs of both nuclear receptors. ITC was performed with a protein concentration of 50 μM and compound concentrations of 250 μM.
The 10 fragments showing dual activity in the DSF experiments were validated by functional assay screening with a fixed concentration of 500 µM in case of sEH-H and LTA4H, 100 µM in case of 5-LOX and 30 µM, 10 µM and 5 µM in case of FXR and […]
% (5-LOX) as well as the hits determined in the DSF experiments were further measured with concentrations between 1000 µM and 0.1 µM (sEH-H and LTA4H) and between 300 µM and 1 µM (5-LOX). The sEH and LTA4H activity assays were performed as triplicate and repeated 3 times. The 5-LOX activity assay was performed with one point per concentration and repeated 3 times Raw data was first analyzed in Microsoft Office Excel (2013), before IC50 curves were plotted and further analyzed using GraphPad Prism 7 and GraphPad Prism 8 for the shown graphs .
The eight approved drugs were measured in the orthogonal assay systems analogous to the fragments. The approved drugs were […]
For the sEH-H and LTA4H, they were measured as triplicate in concentrations between 1000 µM and 1 µM and each measurement was repeated three times. For the 5-LOX they were measured as single point measurement in three different experiments with concentrations between 300 µM and 1 µM. For […]
Raw data was processed according to the fragments.
The sEH-H activity assay was performed adapted from Hahn et al.5 and Lukin et al.6. In short 1 µl of compound dilution in DMSO or pure DMSO (for the positive and negative control) was placed in a black 96-well plate (Thermo Scientific™ Nunc™ F96 MicroWell™ Black Polystyrene Plate) and then 89 µl of protein-mix or buffer mix (without protein as negative control) were added and the mixture was incubated for 30 min at room temperature. 10 µl of 0.6 mM 3-phenyl-cyano(6-methoxy-2-naphthalenyl)methylester-2-oxiraneacetic acid (PHOME) were added to every well. The Plate was measured every minute for 45 min. Final concentration per well was 3 nM sEH-Fl, 0.001 % Triton X-100, 25 mM Bis-tris, 0.1 mg/ml BSA, pH = 7.0, 1.6% DMSO […]

| SMILES | sEH LE [kcal/mol] | IC50 [µM] |
| --- | --- | --- |
| Cc1cc(=O)n(-c2ccc(C)c(C)c2)[nH]1 [Compound 2] | 0.35 | 135 ± 9.1 |
| CCCCOc1cc(C(=O)OC)ccc1N [Compound 3] | <0.3 | > 300 |
| Oc1ccc(Cc2ccccc2)cc1 [Compound 4] | – | 151 ± 5.8 |
| Cc1ccccc1C(=O)Nc1ccccc1 [Compound 6] | 0.31 | 226 ± 18.5 |
| CCN(Cc1ccccc1)c1ccccc1 [Compound 7] | – | 56.6 ± 5.4 |
| Clc1ccc2c(c1)Nc1ccccc1CC2 [Compound 8] | 0.33 | 141 ± 34.1 |
| Oc1ccc(-c2ccc(F)cc2F)cc1 [Compound 9] | 0.36 | 108 ± 11 |
| Fc1ccc(-c2c[nH]c3ccccc23)cc1 [Compound 10] | 0.33 | 120 ± 22.4 |
